Experimental data taken from patent publication US8158623B2, “Heptacyclic compounds and the pharmaceutical uses thereof for preventing and treating diabetes and metabolic syndrome” (Shanghai Institute of Materia Medica Chinese Academy of …, priority 2007, dated 2012).

Experiments:
3T3-L1 adipocytes = test: Glucose uptake in 3T3-L1 adipocytes (3H-labelled 2-deoxyglucose); type: cell-based; conditions: for Glucose uptake, Mean, Compound + Insulin Group (Control Group = 1.000): with insulin, relative to control without insulin; for fold induction at 10 µM: Mus musculus, 3T3-L1, 2 h incubation, read-out: Glucose uptake, Mean, Compound Group (Control Group = 1.000)
Experimental: The effect of the compounds on baseline or insulin-stimulated glucose uptake was evaluated, using the model of glucose uptake in 3T3-L1 adipocytes.
Adipose tissue is the target of glucose metabolism in vivo. The sensitivity for insulin and availability of glucose in adipose tissues are tightly associated with the insulin resistance. The transportation of glucose into adipocytes is a rate-limiting step for the glucose metabolism, and also an important indicator for evaluating the sensitivity for insulin in adipose tissue. 3T3-L1 is a kind of pre-adipocyte, and can become adipocyte after differentiated completely. Therefore, 3T3-L1 is a desirable model for the glucose transport.
Pre-adipocyte, 3T3-L1 was induced to differentiate under certain conditions. After 3T3-L1 differentiated into adipocytes, the compounds of interest with different concentrations and DMSO (used as control) can be added and incubated with the adipocytes for different periods, then the glucose uptake could be determined. For evaluating the ability for a compound to stimulate glucose uptake, the baseline and insulin-induced glucose uptake were determined, and the increase in baseline and insulin-induced glucose uptake upon treatment of the compounds as compared with control group (with 0.1% DMSO) is calculated, based on the ^3H-labelled 2-deoxyglucose inside the cells.
3T3-L1 cells purchased from Karolinska Institute (Sweden) were cultured in DMEM medium containing 10% fetal calf serum at 37° C., under 5% CO2. The cells were passaged every 3-4 days. The cells were inoculated into 12-well plate. Upon confluence, culture medium containing 0.5 mM 3-isobutyl-1-methylxanthine, 0.25 μM dexamethasone and 5 μg/ml insulin was added and cultured for 3 days. Then, the culture medium was replaced by a medium containing 5 μg/ml insulin and further cultured for 3 days. The insulin was removed, and the cells had differentiated completely into mature adipocytes after 2 days which could be used to determine the glucose uptake.
23 compounds chosen by the inventors were added into the culture medium of adipocytes in a dose of 10 μM. After incubation for 2 h, the effect of the compounds on glucose uptake in 3T3-L1 cells was observed. Culture medium without compounds was used as negative control. The control group only supplemented with insulin and the experiment group supplemented with compounds plus insulin were also employed to observe the effect of the compounds on glucose uptake.

[1] = test system: AMP-Activated Protein Kinase (AMPK); test: Phosphorylation of AMPK in HepG2 cell (Western blot); type: cell-based, Human; conditions: HepG2, 50 uM, 5 minutes, P<0.01 or P<0.05
Experimental: (§1) Human hepatoma carcinoma cell strain (HepG2, purchased from the cell bank of Shanghai Institute of Cell Biology of Chinese Academy) was used. The Human hepatoma carcinoma cells were passaged by 0.1% pancreatin/0.02% EDTA digestion, and cultured in a incubator at 37° C. using MEM culture medium containing 10% FBS, under 5% CO2/95%.
(§2) HepG2 cells were cultured in 6-well plates for 48 hours until 70%-80% confluence. Serum starvation was started by changing medium with MEM containing 0.5% BSA. After starvation for 6 hours, cells were treated with the compounds (final concentration of 50 uM, containing 0.25% DMSO) for 5 minutes. The culture medium was discarded, and cells were harvested and washed for twice with pre-cooled PBS. The washing liquid was discarded, and any residual PBS was blotted dry. DMSO without heptacyclic compounds was used as control.
(§3) Extraction of total cellular protein: 150 μl/well homogenizing buffer (137 mM NaCl, 2.7 mM KCl, 1 mM MgCl2, 0.5 mM Na3VO4, 1% Triton X-100, 10% Glycerol, 20 mM Tris-HCl pH 7.8, 1 ug/ml Leupeptin, 0.2 mM PMSF, 10 mM NaF, 1 ug/ml Aprotinin, 1 mM EDTA, 1 mM DTT, 5 mM Sodium pyrophosphate, 1 mM Benzamidine) was added. Cells were collected into a 1.5 ml centrifuge tube using cell scraper. Cells were homogenized using sonicator (5 W of power) for 2 times (3 seconds per time), and shaken on a shaker for 1 hour. Supernatant (i.e., total cellular protein) was collected by centrifuging at 14000 rpm for 15 min at 4° C., and stored at −70° C. until use. After the protein concentration was determined by Bradford method, the supernatant was formulated as the loading sample with final concentration of 0.6 mg/ml. The whole preparation process was performed at 4° C.
(§4) Protein Electrophoresis: After being treated at 95° C. for 5 min, the loading sample was loaded (15 μg protein/lane). The protein was separated on 7.5% SDS-acrylamide gel for 1-2 hours under the voltage of 80-120 V.
(§5) Electrotransferring the protein and blocking the membrane: After electrophoresis was finished, the protein was transferred to PVDF membrane using semi-dry transferring slot based on 0.8 mA/cm^2 membrane area under the electric current of 80 mA for 2 hours. After that, the membrane was shaken for 2 hours with 7.5% skim milk/TTBS to block the membrane.
(§6) Antigen-antibody reaction: After the blocking process was finished, the membrane was incubated with primary antibody (antibody against phosphorylated ACC (P-ACC) and antibody against phosphorylated AMPK (P-AMPK), all purchased from Cell signaling (USA), with the working concentration of 1:1000) overnight at 4° C. The membrane was removed, and the primary antibody was recovered. The membrane was washed 5 times, each for 10 min in TTBS. The membrane was shaken for 2 hours with the secondary antibody (horseradish peroxidase-conjugated goat-anti-rabbit IgG antibody, purchased from Bio-rad (USA), with the working concentration of 1:5000) at room temperature. The secondary antibody was discarded. The membrane was washed 5 times, each for 10 min in TTBS in order to remove the unbound secondary antibody.
(§7) ECL exposure and development: Luminescent agents, ECL 1, 2, were mixed homogeneously, and incubated with the membrane for 3-5 min. The membrane was removed, wrapped in preservative film, and transferred into dark room for exposure. After exposure with X-film, the film was developed, washed, recorded and conserved.
(§8) Semi-quantitative analysis was performed through optical density scan using computer image analysis system. Grey level of the protein expression was calculated. The target grey level was divided by the grey level of internal standard, and a histogram was plotted, taking the normal group as 1 unit.

[2] = test system: Acetyl CoA Carboxylase (ACC); test: Phosphorylation of ACC in HepG2 cell (Western blot); type: cell-based, Human; conditions: HepG2, 50 uM, 5 minutes, P<0.01 or P<0.05
Experimental: as §1, §2, §3, §4, §5, §6, §7, §8

[3] = baseline (without insulin), relative to control

Structure (SMILES) | Glucose uptake, Mean, Compound + Insulin Group (Control Group = 1.000) (3T3-L1 adipocytes; 10 μM, 2 h incubation) | fold induction at 10 µM (3T3-L1 adipocytes; [3]) | Level of phosphorylation for AMPK protein versus DMSO control [1] | Level of phosphorylation for ACC protein versus DMSO control [2] | Glucose uptake, Mean, Compound Group (Control Group = 1.000) (3T3-L1 adipocytes; 10 μM, 2 h incubation, baseline (without insulin), relative to control)
O=C1Oc2ccccc2Oc2ccccc21 [AA0, Dibenzo[b,e][1,4]dioxepin-11-one] | 2.130 | 1.12 |  |  | 
CCCOC(=O)c1cc(OC)c(C)c2c1Oc1c(CNc3ccc(S(N)(=O)=O)cc3)c(O)cc(C)c1C(=O)O2 [AA5, 3-Hydroxy-8-methoxy-1,9-dimethyl-11-oxo-4-[(4-sulfamoyl-phenylamino)-methyl]-11H-dibenzo[b,e][1,4]dioxepine-6-carboxylic acid propyl ester] |  |  | increased significantly |  | 
CCCOC(=O)c1cc(OC)c(C)c2c1Oc1c(CNCCN3CCOCC3)c(O)cc(C)c1C(=O)O2 [AA6, 3-Hydroxy-8-methoxy-1,9-dimethyl-4-[(2-morpholin-4-yl-ethylamino)-methyl]-11-oxo-11H-dibenzo[b,e][1,4]dioxepine-6-carboxylic acid propyl ester] |  |  | increased significantly | improved significantly | 
COc1cc(C(=O)O)c2c(c1C)OC(=O)c1c(C)cc(O)c(CNc3ccc(F)cc3)c1O2 [AA7, 4-[(4-Fluoro-phenylamino)-methyl]-3-hydroxy-8-methoxy-1,9-dimethyl-11-oxo-11H-dibenzo[b,e][1,4]dioxepine-6-carboxylic acid] | 1.786 | 1.13 |  | improved significantly | 
CNC(=O)c1cc(OC)c(C)c2c1Oc1c(C=O)c(O)cc(C)c1C(=O)O2 [AB2, 4-Formyl-3-hydroxy-8-methoxy-1,9-dimethyl-11-oxo-11H-dibenzo[b,e][1,4]dioxepine-6-carboxylic acid methylamide] | 1.639 | 1.18 |  |  | 
CCNC(=O)c1cc(OC)c(C)c2c1Oc1c(C=O)c(O)cc(C)c1C(=O)O2 [AB4, 4-Formyl-3-hydroxy-8-methoxy-1,9-dimethyl-11-oxo-11H-dibenzo[b,e][1,4]dioxepine-6-carboxylic acid ethylamide] | 1.837 | 1.11 |  |  | 
COc1cc(C(=O)Nc2ccc(S(N)(=O)=O)cc2)c2c(c1C)OC(=O)c1c(C)cc(O)c(C=Nc3ccc(S(N)(=O)=O)cc3)c1O2 [AB9, 3-Hydroxy-8-methoxy-1,9-dimethyl-11-oxo-4-[(4-sulfamoylphenyl)-iminomethyl]-11H-dibenzo[b,e][1,4]dioxepine-6-[carboxy-(4-sulfamoyl)phenylamide]] | 1.555 |  |  |  | 1.150
COc1ccc2c(c1)NC(=O)c1cc(Cl)c(O)cc1N2 [BT5, 2-Chloro-3-hydroxy-8-methoxy-5,10-dihydro-dibenzo[b,e][1,4]diazepin-11-one] | 1.728 | 1.23 |  | improved significantly | 
Cc1cc2c(c(C(=O)O)c1)Nc1ncccc1C(=O)N2 [BT7, 8-Methyl-5-oxo-6,11-dihydro-5H-benzo[b]pyrido[2,3-e][1,4]diazepine-10-carboxylic acid] |  |  | increased significantly | improved significantly | 
COc1cnc2c(c1)NC(=O)c1ccc(O)c(C=O)c1N2 [BU0, 9-Hydroxy-3-methoxy-6-oxo-6,11-dihydro-5H-benzo[e]pyrido[3,2-b][1,4]diazepine-10-carbaldehyde] | 2.147 | 1.43 | increased significantly |  | 
COC(=O)c1cc(OC)c(C)c2c1Oc1c(C=O)c(O)cc(C)c1C(=O)O2 [Compound A0, 4-Formyl-3-hydroxy-8-methoxy-1,9-dimethyl-11-oxo-11H-dibenzo[b,e][1,4]dioxepine-6-carboxylic acid methyl ester] | 2.710 | 1.33 |  | improved significantly | 
CCCCOC(=O)c1cc(OC)c(C)c2c1Oc1c(C=O)c(O)cc(C)c1C(=O)O2 [Compound A6, 4-Formyl-3-hydroxy-8-methoxy-1,9-dimethyl-11-oxo-11H-dibenzo[b,e][1,4]dioxepine-6-carboxylic acid butyl ester] |  |  | significant up-regulation | improved significantly | 
COc1cc(C(=O)O)c2c(c1C)OC(=O)c1c(C)cc(O)c(CN3CCNCC3)c1O2 [Compound D1, 3-Hydroxy-8-methoxy-1,9-dimethyl-11-oxo-4-(piperazin-1-ylmethyl)-11H-dibenzo[b,e][1,4]dioxepine-6-carboxylic acid] | 3.673 | 1.28 | increased significantly |  | 
COc1cc(C(=O)O)c2c(c1C)OC(=O)c1c(C)cc(O)c(CNC(C)(C)C)c1O2 [Compound D3, 4-(tert-Butylamino-methyl)-3-hydroxy-8-methoxy-1,9-dimethyl-11-oxo-11H-dibenzo[b,e][1,4]dioxepine-6-carboxylic acid] | 3.001 | 1.12 |  |  | 
COc1cc(C(=O)O)c2c(c1C)OC(=O)c1c(C)cc(O)c(CN3CCN(Cc4ccccc4)CC3)c1O2 [Compound D4, 4-(4-Benzyl-piperazin-1-ylmethyl)-3-hydroxy-8-methoxy-1,9-dimethyl-11-oxo-11H-dibenzo[b,e][1,4]dioxepine-6-carboxylic acid] | 3.717 | 1.19 |  |  | 
COc1cc(C(=O)O)c2c(c1C)OC(=O)c1c(C)cc(O)c(CNc3ccc(NC(C)=O)cc3)c1O2 [Compound D8, 4-[(4-Acetylamino-phenylamino)-methyl]-3-hydroxy-8-methoxy-1,9-dimethyl-11-oxo-11H-dibenzo[b,e][1,4]dioxepine-6-carboxylic acid] | 3.877 | 1.21 |  | improved significantly | 
